Laboratory results taken from patent US10168342B2, “Lipid probes and uses thereof” (THE SCRIPPS RESEARCH INSTITUTE, priority 2015, dated 2019).
Like-named read-outs stand apart in the source and are kept apart here.

Experiments:
[1] = target: T1, AEA-DA lipid probe targets in Neuro2a cells (Mus musculus, UniProt Q921T2)
T1 sequence (Q921T2 1-595): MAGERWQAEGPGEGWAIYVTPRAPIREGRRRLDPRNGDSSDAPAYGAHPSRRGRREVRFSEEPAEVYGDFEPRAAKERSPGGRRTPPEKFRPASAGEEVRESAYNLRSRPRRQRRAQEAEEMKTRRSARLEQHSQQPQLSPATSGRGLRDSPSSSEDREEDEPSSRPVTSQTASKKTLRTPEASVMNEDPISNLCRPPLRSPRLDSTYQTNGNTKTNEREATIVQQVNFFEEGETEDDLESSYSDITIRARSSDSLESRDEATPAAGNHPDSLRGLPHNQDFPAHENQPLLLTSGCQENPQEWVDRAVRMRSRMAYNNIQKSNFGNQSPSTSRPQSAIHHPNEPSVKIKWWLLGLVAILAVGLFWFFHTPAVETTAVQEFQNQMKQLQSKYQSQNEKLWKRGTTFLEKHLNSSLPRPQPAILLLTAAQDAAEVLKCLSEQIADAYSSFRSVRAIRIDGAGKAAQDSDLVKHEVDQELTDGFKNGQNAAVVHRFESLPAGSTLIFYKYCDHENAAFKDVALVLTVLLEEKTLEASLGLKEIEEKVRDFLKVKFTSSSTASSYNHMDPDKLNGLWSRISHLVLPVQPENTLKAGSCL

[2] = target: T2, AEA-DA lipid probe targets in Neuro2a cells (Mus musculus, UniProt Q8C0K5)
T2 sequence (Q8C0K5 1-332): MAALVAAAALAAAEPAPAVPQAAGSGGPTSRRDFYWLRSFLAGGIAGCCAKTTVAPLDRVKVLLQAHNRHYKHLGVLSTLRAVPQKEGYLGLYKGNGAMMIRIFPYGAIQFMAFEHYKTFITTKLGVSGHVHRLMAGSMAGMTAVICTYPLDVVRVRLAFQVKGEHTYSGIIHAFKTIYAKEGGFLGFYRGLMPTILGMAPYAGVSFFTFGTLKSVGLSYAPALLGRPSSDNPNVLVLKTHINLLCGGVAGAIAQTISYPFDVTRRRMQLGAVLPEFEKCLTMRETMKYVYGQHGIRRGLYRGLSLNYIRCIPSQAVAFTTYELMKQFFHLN

[3] = target: AEA-DA lipid probe targets in Neuro2a cells (Mus musculus, UniProt Q8BVU5); conditions: protein Nudt9, Neuro2a cells
[4] = target: T3, AEA-DA lipid probe targets in Neuro2a cells (Mus musculus, UniProt Q8BVE8)
T3 sequence (Q8BVE8 1-1365): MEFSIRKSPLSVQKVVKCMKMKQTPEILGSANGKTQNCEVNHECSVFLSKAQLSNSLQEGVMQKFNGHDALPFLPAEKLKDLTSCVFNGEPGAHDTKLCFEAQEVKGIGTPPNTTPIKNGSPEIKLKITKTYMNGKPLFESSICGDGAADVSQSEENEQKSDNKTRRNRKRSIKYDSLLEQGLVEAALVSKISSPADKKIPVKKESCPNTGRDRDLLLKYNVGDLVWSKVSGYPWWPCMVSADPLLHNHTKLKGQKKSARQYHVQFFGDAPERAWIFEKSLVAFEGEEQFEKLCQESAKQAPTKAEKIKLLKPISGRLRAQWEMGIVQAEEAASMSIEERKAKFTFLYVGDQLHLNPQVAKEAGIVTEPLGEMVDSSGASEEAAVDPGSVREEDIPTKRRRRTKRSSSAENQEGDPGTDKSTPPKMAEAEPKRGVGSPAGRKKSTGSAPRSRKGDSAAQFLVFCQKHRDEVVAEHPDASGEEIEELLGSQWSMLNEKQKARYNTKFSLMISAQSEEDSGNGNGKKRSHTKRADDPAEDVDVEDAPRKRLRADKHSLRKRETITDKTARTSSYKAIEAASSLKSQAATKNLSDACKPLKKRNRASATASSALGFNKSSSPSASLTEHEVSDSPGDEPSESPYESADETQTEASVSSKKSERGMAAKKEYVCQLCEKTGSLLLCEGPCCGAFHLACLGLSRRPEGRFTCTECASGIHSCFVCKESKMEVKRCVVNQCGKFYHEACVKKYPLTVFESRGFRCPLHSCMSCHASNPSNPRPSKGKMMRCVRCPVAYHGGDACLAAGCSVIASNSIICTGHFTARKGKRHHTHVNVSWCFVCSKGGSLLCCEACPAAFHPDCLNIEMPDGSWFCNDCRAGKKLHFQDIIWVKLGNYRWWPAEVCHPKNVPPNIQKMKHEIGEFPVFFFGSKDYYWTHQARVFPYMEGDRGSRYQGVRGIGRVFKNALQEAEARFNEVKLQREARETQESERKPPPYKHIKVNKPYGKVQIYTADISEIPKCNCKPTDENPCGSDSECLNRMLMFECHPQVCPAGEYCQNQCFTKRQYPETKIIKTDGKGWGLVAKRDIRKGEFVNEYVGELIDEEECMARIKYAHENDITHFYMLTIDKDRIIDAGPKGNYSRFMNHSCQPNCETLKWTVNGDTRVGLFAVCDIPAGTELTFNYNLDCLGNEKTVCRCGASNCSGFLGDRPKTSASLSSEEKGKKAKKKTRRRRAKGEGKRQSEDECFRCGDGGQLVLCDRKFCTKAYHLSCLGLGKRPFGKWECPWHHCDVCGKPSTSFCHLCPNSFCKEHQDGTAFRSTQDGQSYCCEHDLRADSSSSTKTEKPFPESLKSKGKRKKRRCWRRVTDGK

Chain of AEA-DA lipid probe targets in Neuro2a cells (Mus musculus, UniProt Q8BVU5) (Q8BVU5 47-350): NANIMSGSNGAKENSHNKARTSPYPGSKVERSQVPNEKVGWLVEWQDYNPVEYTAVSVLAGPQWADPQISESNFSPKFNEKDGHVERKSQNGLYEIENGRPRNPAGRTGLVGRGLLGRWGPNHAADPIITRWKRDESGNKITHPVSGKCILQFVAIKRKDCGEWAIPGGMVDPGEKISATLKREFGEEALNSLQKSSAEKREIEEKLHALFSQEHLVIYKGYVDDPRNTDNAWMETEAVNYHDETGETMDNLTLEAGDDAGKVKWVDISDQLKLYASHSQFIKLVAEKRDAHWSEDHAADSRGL

CCCCC/C=C\C/C=C\C/C=C\C/C=C\CCCC(=O)NCCO [AEA, anandamide, reference compound]
SILAC ratio Tor1aip1 ([1]; competitor 200 μM): 1.5 | SILAC ratio Slc25a16 ([2]; competitor 200 μM): 1.5 | SILAC ratio (AEA-DA competition) ([3]; competitor 200 μM): 1.0 | SILAC ratio Whsc1 ([4]; competitor 200 μM): 1.0

CN1CCN(C(=O)c2c(-c3ccccc3)c3cc([N+](=O)[O-])ccc3n2C)CC1 [KML110, (1-Methyl-5-nitro-3-phenyl-1H-indol-2-yl)(4-methylpiperazin-1-yl)methanone]
SILAC ratio (AEA-DA competition) ([3]; competitor 25 μM): 1.9

CN1CCN(C(=O)c2[nH]c3ccc([N+](=O)[O-])cc3c2-c2ccccc2)CC1 [MJN228, (4-Methylpiperazin-1-yl)(5-nitro-3-phenyl-1H-indol-2-yl)methanone]
SILAC ratio Tor1aip1 ([1]; competitor 10 μM): 1.3 | SILAC ratio Tor1aip1 ([1]; competitor 25 μM): 1.3 | SILAC ratio Tor1aip1 ([1]; competitor 50 μM): 1.3 | SILAC ratio Tor1aip1 ([1]; competitor 100 μM): 2.0 | SILAC ratio Slc25a16 ([2]; competitor 10 μM): 1.2 | SILAC ratio Slc25a16 ([2]; competitor 25 μM): 1.1 | SILAC ratio Whsc1 ([4]; competitor 10 μM): 1.4 | SILAC ratio Whsc1 ([4]; competitor 25 μM): 1.2 | SILAC ratio Whsc1 ([4]; competitor 100 μM): 1.6
